Test results as given in patent publication US8993595B2, “Macrocyclic serine protease inhibitors” (priority 2009, dated 2015).

Columns and labels:
HCV NS3-NS4A protease = target: T1, HCV NS3-NS4A protease (Hepatitis C virus genotype 1a, UniProt P27958); assay: HCV Protease Assay (SensoLyte 620 HCV Protease Assay kit); format: biochemical; conditions: 1.2 nM HCV NS3-NS4A protease, 60 min, room temperature
T1 construct: HCV NS3-NS4A protease, which was obtained according to Taremi et al; made in house
T1 sequence (P27958 1027-1208): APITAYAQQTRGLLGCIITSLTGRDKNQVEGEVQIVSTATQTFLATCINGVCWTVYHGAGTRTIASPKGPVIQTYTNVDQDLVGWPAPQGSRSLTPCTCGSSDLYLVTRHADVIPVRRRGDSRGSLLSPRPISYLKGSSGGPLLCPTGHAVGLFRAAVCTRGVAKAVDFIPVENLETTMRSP
Experimental: Measurement of the inhibitory effect of compounds on HCV protease activity was performed with the SensoLyte™ 620 HCV Protease Assay kit from AnaSpec, Inc. (San Jose, Calif.) under conditions described by the supplier using 1.2 nM HCV NS3-NS4A protease, which was obtained according to Taremi et al. (Protein Science, 1998, 7, 2143-2149). The compounds were tested at a variety of concentrations in assay buffer containing a final DMSO concentration of 5%. Reactions were allowed to proceed for 60 min at room temperature and fluorescence measurements were recorded with a Tecan Infinity Spectrofluorimeter. The IC50 values were determined from the percent inhibition versus concentration data using a sigmoidal non-linear regression analysis based on four parameters with Tecan Magellan software.

[1] = test system: HCV Con1 subgenomic replicon in Huh-7 cells (GS4.1 cells); assay: HCV Replicon Assay (NS4A ELISA); format: cell-based; conditions: Hepatitis C virus, 72 hr
Experimental: Huh-7 cells containing HCV Con1 subgenomic replicon (GS4.1 cells) were grown in Dulbecco's Modified Eagle Medium (DMEM) supplemented with 10% fetal bovine serum (FBS), 2 mM L-glutamine, 110 mg/L sodium pyruvate, 1× non-essential amino acids, 100 U/mL penicillin-streptomycin, and 0.5 mg/mL G418 (Invitrogen). For dose-response testing, the cells were seeded in 96-well plates at 7.5×10^3 cells/well in a volume of 50 μL, and incubated at 37° C./5% CO2. Three hours after plating, 50 μL of ten 2-fold serial dilutions of compounds (highest concentration, 75 μM) were added, and cell cultures were incubated at 37° C./5% CO2 in the presence of 0.5% DMSO. Alternatively, compounds were tested at a single concentration of 15 μM. In all cases, Huh-7 cells lacking the HCV replicon served as negative control. The cells were incubated in the presence of compounds for 72 hr after which they were monitored for expression of the NS4A protein by enzyme-linked immunosorbent assay (ELISA). For this, the plates were then fixed for 1 min with acetone/methanol (1:1, v/v), washed twice with phosphate-buffered saline (PBS), 0.1% Tween 20, blocked for 1 hr at room temperature with TNE buffer containing 10% FBS and then incubated for 2 hr at 37° C. with the anti-NS4A mouse monoclonal antibody A-236 (ViroGen) diluted in the same buffer. After washing three times with PBS, 0.1% Tween 20, the cells were incubated 1 hr at 37° C. with anti-mouse immunoglobulin G-peroxidase conjugate in TNE, 10% FBS. After washing as described above, the reaction was developed with O-phenylenediamine (Zymed). The reaction was stopped after 30 min with 2 N H2SO4, and absorbance was read at 492 nm using Sunrise Tecan spectrophotometer. EC50 values were determined from the % inhibition versus concentration data using a sigmoidal non-linear regression analysis based on four parameters with Tecan Magellan software.

in vitro = format: cell-based; conditions: human; GS4.1 cells, Cell Titer 96 AQueous One Solution
Experimental: For cytotoxicity evaluation, GS4.1 cells were treated with compounds as described above and cellular viability was monitored using the Cell Titer 96 AQueous One Solution Cell Proliferation Assay (Promega). CC50 values were determined from the % cytotoxicity versus concentration data with Tecan Magellan software as described above.

SMILES | IC50 (HCV NS3-NS4A protease) | EC50 [1] | CC50 (in vitro)
COc1ccc2c(O[C@H]3CCN4C(=O)N(C)CCOC/C=C\[C@@H]5C[C@@]5(C(=O)NS(=O)(=O)C5(C)CC5)NC(=O)[C@@H]4C3)cc(-c3nc(C(F)(F)F)cs3)nc2c1C [Compound 54] | < 1000 nM | 1000 to 10000 nM | > 75000 nM
COc1ccc2c(O[C@H]3CCN4C(=O)N(C)CCCC/C=C\[C@@H]5C[C@@]5(C(=O)NS(=O)(=O)C5CC5)NC(=O)[C@@H]4C3)cc(-c3nc(C(F)(F)F)cs3)nc2c1C [Compound 51, 1-cyclopropanesulfonic acid{(Z)-(1S,4R,6S,18S)-18-[7-methoxy-8-methyl-2-(4-trifluoromethyl-thiazol-2-yl)-quinolin-4-yloxy]-13-methyl-2,14-dioxo-3,13,15-triaza-tricyclo[13.4.0.0*4,6*]nonadec-7-ene-4-carbonyl}amide] | < 1000 nM | < 1000 nM | 10000 to 75000 nM
C#Cc1csc(-c2cc(O[C@H]3CCN4C(=O)N(C)CCCC/C=C\[C@@H]5C[C@@]5(C(=O)NS(=O)(=O)C5(C)CC5)NC(=O)[C@@H]4C3)c3ccc(OC)c(C)c3n2)n1 [Compound 55, 1-methyl-cycloprpoanesulfonic acid{(Z)-(1S,4R,6S,18S)-18-[2-(4-ethynyl-thiazol-2-yl)-7-methoxy-8-methyl-quinolin-4-yl-oxy]-13-methyl-2,14-dioxo-3,13,15-triaza-tricyclo[13.4.0.0*4,6*]nonadec-7-ene-4-carbonyl}-amide] | < 1000 nM | < 1000 nM | 10000 to 75000 nM
COc1ccc2c(O[C@H]3CCN4C(=O)CCCCC/C=C\[C@@H]5C[C@@]5(C(=O)NS(=O)(=O)C5CC5)NC(=O)[C@@H]4C3)cc(-c3nc(C(F)(F)F)cs3)nc2c1C [Compound 58] | < 1000 nM | < 1000 nM | 10000 to 75000 nM
COc1ccc2c(O[C@H]3CCN4C(=O)N(C)CCCC/C=C\[C@@H]5C[C@@]5(C(=O)NS(=O)(=O)C5(C)CC5)NC(=O)[C@@H]4C3)nc(-c3nc(C(F)(F)F)cs3)nc2c1C [Compound 57, 1-methyl-cyclopropanesulfonic acid {(Z)-(1S,4R,6S,18S)-18-[7-methoxy-8-methyl-2-(4-trifluoromethyl-thiazol-2-yl)quinazolin-4-yloxy]-13-methyl-2,14-dioxo-3,13,15-triaza-tricyclo[13.4.0.0*4,6*]nonadec-7-ene-4-carbonyl}-amide] | < 1000 nM | < 1000 nM | 10000 to 75000 nM
COc1ccc2c(O[C@H]3CCN4C(=O)N(C)CCCC/C=C\[C@@H]5C[C@@]5(C(=O)NS(=O)(=O)C5(C)CC5)NC(=O)[C@@H]4C3)nc(-c3ccc(F)cc3)nc2c1C [Compound 56] | < 1000 nM | < 1000 nM | > 75000 nM
